Measurements taken from article PMC8922279, “Identification of β-Lactams Active against Mycobacterium tuberculosis by a Consortium of Pharmaceutical Companies and Academic Institutions” (ACS Infectious Diseases, 2022).
In brackets after ≈: the same amount, converted by molar mass.

What was measured:
in vitro [1] = conditions: male, CD-1, mouse, plasma, Plasma stability % Remaining
S. aureus = assay: Microbial spectrum, S. aureus; format: cell-based, Staphylococcus aureus
WT Mtb H37Rv = assay: Colony-forming unit (CFU) assay, replicating WT Mtb H37Rv; format: cell-based, Mycobacterium tuberculosis
CYP3A5 = format: in vitro ADME; conditions: human, hepatocytes, 3 µM
Protocol: (§1) Metabolic stability and induction of human hepatocytes were performed as previously described.[71]

CYP2B6 = format: in vitro ADME; conditions: human, hepatocytes, 3 µM
Protocol: as §1

CYP1A2 = format: in vitro ADME; conditions: human, hepatocytes, 3 µM
Protocol: as §1

[2] = Cytotoxicity against HepG2 cells (CellTiter-Glo); format: cell-based, human; conditions: human, HepG2 cells
Protocol: (§2) Compounds were tested for cytotoxicity against HepG2 cells as previously described.[48],[69],[70] Briefly, cells were exposed to compounds for 48–72 h, and viability was measured using CellTiter-Glo (Promega).

HepG2 cells = assay: Cytotoxicity against HepG2 cells (CellTiter-Glo); format: cell-based, human; conditions: Table S4
Protocol: as §2

in vivo [3] = conditions: DHP-1 knockout, mouse, sc, 300 mg/kg
in vitro [4] = conditions: beagle, dog, plasma
[5] = 300 mg/kg sc, uninfected DHP-1 mice
in vitro [6] = conditions: human, plasma, Plasma stability % Remaining
in vivo [7] = conditions: female, 129sv DHP-1 knockout, mouse, sc, 50 mg/kg
in vitro [8] = conditions: beagle, dog, plasma, pH 7.4
P. aeruginosa = assay: Microbial spectrum, P. aeruginosa; format: cell-based, Pseudomonas aeruginosa
plasma proteins [9] = conditions: 4 h, 2 μM, pH 7.4
CYP3A4 = CYP3A4 (Homo sapiens, UniProt P08684); assay: CYP3A4 inhibition
Sequence of CYP3A4 (P08684 whole entry, species assumed): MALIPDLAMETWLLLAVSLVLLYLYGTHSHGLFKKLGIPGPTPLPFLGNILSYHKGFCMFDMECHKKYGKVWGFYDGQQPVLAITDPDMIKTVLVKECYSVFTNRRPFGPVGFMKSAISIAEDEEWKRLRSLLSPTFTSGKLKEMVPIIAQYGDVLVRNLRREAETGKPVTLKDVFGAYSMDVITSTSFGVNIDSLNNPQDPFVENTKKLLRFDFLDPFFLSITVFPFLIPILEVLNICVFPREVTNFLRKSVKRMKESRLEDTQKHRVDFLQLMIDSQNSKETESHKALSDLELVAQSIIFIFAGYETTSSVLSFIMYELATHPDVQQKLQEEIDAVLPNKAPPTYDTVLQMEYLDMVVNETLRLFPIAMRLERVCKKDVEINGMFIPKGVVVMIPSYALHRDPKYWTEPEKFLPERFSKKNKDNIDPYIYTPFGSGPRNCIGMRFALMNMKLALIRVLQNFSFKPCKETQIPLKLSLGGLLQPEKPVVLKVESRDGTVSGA

C. albicans = assay: Microbial spectrum, C. albicans; format: cell-based, Candida albicans
in vitro [10] = conditions: SD, rat, plasma, Plasma stability % Remaining
in vitro [11] = conditions: monkey, plasma
physchem [12] = format: physicochemical; conditions: thermodynamic from solid
Protocol: Compounds were prepared at 1 mg/mL and left overnight at room temperature with stirring in phosphate buffer, 50 mM, at pH 7.4 or in 0.1 N HCl at pH 1. After separation of the soluble fraction by centrifugation, samples were filtered onto a polytetrafluoroethylene […] filter (Millipore) and then analyzed by HPLC.

in vitro [13] = conditions: cynomolgus monkey, plasma, pH 7.4
physchem [14] = conditions: simulated gi fluid, pH 6.5, FaSSIF Stability, % remaining
plasma proteins [15] = conditions: 4 h, 2 μM, pH 7.4; remark: listed apart in the source
physchem [16] = conditions: simulated gi fluid, pH 1.2
[17] = SD, 2 h, 2 μM

## O=C(Cc1ccc(C2=NCCN2)cc1)N[C@@H]1C(=O)N2C(C(=O)O)=C(CSc3nncs3)CS[C@H]12 [TBBL-0000316]
In vitro [1]
  remaining at 2 h, 2 μM: 88.5%
S. aureus; Staphylococcus aureus, S. aureus, with 4 μg/mL clavulanate
  MIC90: 0.86 µM
S. aureus; clavulanate 4 μg/mL, Table S4
  S.aureus R + CLAV (MIC90): 0.9 µM
WT Mtb H37Rv; daily dosing for 5 days with 4 μg/mL clavulanate, at ≥1 μM
  reduction in CFU: 3–4 log10
WT Mtb H37Rv; single dose at 10 μM, one-week exposure, 4 μg/mL clavulanate
  reduction in CFU: 3.5 log10
CYP3A5
  induction of expression of CYP3A5: < 2 fold
CYP2B6
  induction of expression of CYP2B6: < 2 fold
CYP1A2
  induction of expression of CYP1A2: < 2 fold
[2]
  IC50: > 100 µM
HepG2 cells
  HepG2 LD50: > 100 µM
In vivo [3]
  AUC(0-t): 60200 ± 11400 ng·h/mL
  Cmax: 28700 ± 866 ng/mL
  Tmax: 60 to 120 min
Caco-2 cells
  Caco-2 Rank Papp: Low
  Efflux Transporter Substrate: Poor or no
In vitro [4]
  remaining at 2 h, 2 μM: 77.3%
[5]
  Tlast: 2.0 to 4.0 h
In vitro [6]
  remaining at 2 h, 2 μM: 86.1%
In vivo [7]
  AUC(0-t): 23700 ng·h/mL
  Cmax: 17500 ng/mL
  Tmax: 30 min
In vitro [8]
  fraction unbound at 4 h, 2 μM: 0.973
P. aeruginosa; Pseudomonas aeruginosa, P. aeruginosa
  MIC90: > 100 µM
P. aeruginosa; clavulanate 4 μg/mL, Table S4
  P.aeruginosa R + CLAV (MIC90): > 100 µM
Plasma proteins [9]
  % bound to plasma, SD Rat: 62%
CYP3A4
  IC50: > 25 µM
C. albicans; Candida albicans, C. albicans
  MIC90: > 100 µM
C. albicans; no clavulanate, Table S4
  C.albicans R (MIC90): > 100 µM
In vitro [10]
  remaining at 2 h, 2 μM: 85.9%
In vitro [11]
  remaining at 2 h, 2 μM: 114%
Physchem [12]; pH 1, simulated gastric fluid
  solubility: 402 µg/mL (≈ 778 µM)
Physchem [12]; pH 7.4, aqueous buffer
  solubility: > 1000 µg/mL
In vitro [13]
  fraction unbound at 4 h, 2 μM: 0.335
Physchem [14]; 6h
  remaining at 6 h, 10 μM: 94.7%
Physchem [14]; 24h
  remaining at 24 h, 10 μM: 84.2%
Plasma proteins [15]
  % bound to plasma, Human: 38%
Physchem [16]
  remaining at 1 h, 10 μM: 83.7%
  remaining at 24 h, 10 μM: 0.45%
[17]
  Plasma stability % Remaining, Rat: 86%
